Results on three compounds are retold here after ChEMBL document CHEMBL1201862, “PubChem BioAssay data set” (2004).

In assay [1] the target is T1, Sentrin-specific protease 8 (Homo sapiens, UniProt Q96LD8).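 Further: luminescence read-out of SENP8 inhibition, dose-response confirmation following an ultra-high-throughput screen.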
T1 sequence (Q96LD8 whole entry): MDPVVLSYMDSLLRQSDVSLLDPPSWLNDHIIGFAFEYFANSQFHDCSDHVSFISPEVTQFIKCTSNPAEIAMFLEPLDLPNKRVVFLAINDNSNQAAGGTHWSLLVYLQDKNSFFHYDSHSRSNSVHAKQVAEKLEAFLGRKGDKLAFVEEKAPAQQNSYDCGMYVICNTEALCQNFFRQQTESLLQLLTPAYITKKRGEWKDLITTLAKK
It is filed as functional.

Assay [2] has as its target T2, Heat shock factor protein 1 (Mus musculus, UniProt P38532).
T2 sequence (P38532 whole entry): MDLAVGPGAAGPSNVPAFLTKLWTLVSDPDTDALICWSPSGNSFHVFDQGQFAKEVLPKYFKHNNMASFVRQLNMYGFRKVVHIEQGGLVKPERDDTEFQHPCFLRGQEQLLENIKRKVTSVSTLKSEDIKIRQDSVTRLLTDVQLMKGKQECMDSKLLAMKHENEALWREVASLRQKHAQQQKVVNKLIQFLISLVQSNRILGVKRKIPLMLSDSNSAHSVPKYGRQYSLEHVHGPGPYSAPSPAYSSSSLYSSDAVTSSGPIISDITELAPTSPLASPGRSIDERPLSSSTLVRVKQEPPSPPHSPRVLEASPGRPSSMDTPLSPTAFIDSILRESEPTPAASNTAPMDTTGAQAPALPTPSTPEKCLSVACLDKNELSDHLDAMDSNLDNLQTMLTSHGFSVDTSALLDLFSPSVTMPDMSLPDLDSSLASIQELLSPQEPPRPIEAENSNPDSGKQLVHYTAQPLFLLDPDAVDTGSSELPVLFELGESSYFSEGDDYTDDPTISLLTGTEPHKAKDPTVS
Put plainly: inhibition of MG132-induced HSE-luciferase signal, confirmation, cell-based, NIH3T3, luminescence, dose retest (AID 2382).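 Further: NIH3T3 fibroblasts with HSF1-driven luciferase reporter stressed by proteasome inhibitor MG132; luminescence from HSF1-driven luciferase expression after 8 hours of MG132 stress.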 The class given is functional.

The target of assay [3] is cAMP-dependent protein kinase catalytic subunit PRKX (Homo sapiens, UniProt P51817). The class given is functional.
Assay [4] deals with Insulin-like growth factor 1 receptor (Homo sapiens, UniProt P08069). The assay is described as follows: Navigating the Kinome. Panel member name: IGF1R. It is filed as functional.
For assay [5], the target named is Wee1-like protein kinase (Homo sapiens, UniProt P30291). The assay is described as follows: Navigating the Kinome. Panel member name: WEE1. It is filed as functional.
Assay [6] has as its target Mitogen-activated protein kinase 14 (Homo sapiens, UniProt Q16539). The class given is functional.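 Further: part of a kinome-wide panel, MAPK14 entry.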
Assay [7] addresses Mast/stem cell growth factor receptor Kit (Homo sapiens, UniProt P10721). It is filed as functional.
Assay [8] concerns the target STE20-like serine/threonine-protein kinase (Homo sapiens, UniProt Q9H2G2). It is filed as functional.
Assay [9] concerns the target Mitogen-activated protein kinase 9 (Homo sapiens, UniProt P45984). It is filed as functional.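 Further: value from a kinome panel profiling assay, MAPK9 panel entry.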
Assay [10] addresses Misshapen-like kinase 1 (Homo sapiens, UniProt Q8N4C8). It is filed as functional.
Assay [11] deals with Serine/threonine-protein kinase 3 (Homo sapiens, UniProt Q13188). It is filed as functional.
Assay [12] deals with Dual specificity protein phosphatase 3 (Homo sapiens, UniProt P51452). Put plainly: VHR1 phosphatase inhibitors, primary screen, biochemical, absorbance, uHTS (AID 1654).
Assay [13] concerns the target T3, Protein RecA (Mycobacterium tuberculosis, UniProt P9WHJ3).
T3 sequence (P9WHJ3 whole entry): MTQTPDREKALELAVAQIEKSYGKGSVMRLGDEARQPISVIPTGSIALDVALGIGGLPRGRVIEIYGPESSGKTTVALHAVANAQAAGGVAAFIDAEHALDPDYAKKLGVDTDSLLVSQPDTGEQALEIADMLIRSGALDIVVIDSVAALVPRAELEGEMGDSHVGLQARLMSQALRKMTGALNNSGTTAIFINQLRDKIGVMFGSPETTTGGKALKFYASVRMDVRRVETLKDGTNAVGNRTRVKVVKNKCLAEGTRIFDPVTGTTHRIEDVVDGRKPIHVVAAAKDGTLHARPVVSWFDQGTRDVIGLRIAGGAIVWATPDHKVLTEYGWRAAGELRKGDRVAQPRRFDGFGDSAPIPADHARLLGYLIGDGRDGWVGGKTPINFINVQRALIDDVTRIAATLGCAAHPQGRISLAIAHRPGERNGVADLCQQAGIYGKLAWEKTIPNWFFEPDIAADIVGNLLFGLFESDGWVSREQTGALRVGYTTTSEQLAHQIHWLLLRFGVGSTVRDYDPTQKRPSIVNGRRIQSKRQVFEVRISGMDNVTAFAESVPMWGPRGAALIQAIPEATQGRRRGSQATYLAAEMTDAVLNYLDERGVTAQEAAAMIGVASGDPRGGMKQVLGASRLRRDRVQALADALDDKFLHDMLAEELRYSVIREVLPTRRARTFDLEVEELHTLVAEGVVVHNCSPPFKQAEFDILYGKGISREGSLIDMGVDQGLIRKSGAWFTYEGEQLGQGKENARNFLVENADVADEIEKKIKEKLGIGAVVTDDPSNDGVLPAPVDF
The assay is described as follows: Fluorescence Cell-Free Homogeneous Dose Retest to Identify Inhibitors of RecA-Intein Splicing Activity. [Related pubchem assays (depositor defined):AID2097, AID2223, AID489010, AID492950]. It is filed as functional.

Assay [14] addresses Histone-lysine N-methyltransferase NSD2 (Homo sapiens, UniProt O96028). It is filed as biochemical.
Assay [15] can be described thus: HepG2 cell cytotoxicity, dose response, cytotoxicity control for Shn3 inhibitor project, CellTiter-Glo, cherry-picked (AID 624134). It is filed as functional, cell-based.
The nature of assay [16]: Intein inhibitors as potential Tuberculosis drugs, a cytotoxicity screen. [Related pubchem assays (depositor defined):AID2221, AID2223, AID434968, AID435010, AID449749, AID449750, AID489010]. It is filed as functional.

Activity calls are given as the source filed them.
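Wherever CC50 is given: cells exposed to compound for 72 hours before luminescence readout.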

Sequence of Misshapen-like kinase 1 (Q8N4C8 whole entry): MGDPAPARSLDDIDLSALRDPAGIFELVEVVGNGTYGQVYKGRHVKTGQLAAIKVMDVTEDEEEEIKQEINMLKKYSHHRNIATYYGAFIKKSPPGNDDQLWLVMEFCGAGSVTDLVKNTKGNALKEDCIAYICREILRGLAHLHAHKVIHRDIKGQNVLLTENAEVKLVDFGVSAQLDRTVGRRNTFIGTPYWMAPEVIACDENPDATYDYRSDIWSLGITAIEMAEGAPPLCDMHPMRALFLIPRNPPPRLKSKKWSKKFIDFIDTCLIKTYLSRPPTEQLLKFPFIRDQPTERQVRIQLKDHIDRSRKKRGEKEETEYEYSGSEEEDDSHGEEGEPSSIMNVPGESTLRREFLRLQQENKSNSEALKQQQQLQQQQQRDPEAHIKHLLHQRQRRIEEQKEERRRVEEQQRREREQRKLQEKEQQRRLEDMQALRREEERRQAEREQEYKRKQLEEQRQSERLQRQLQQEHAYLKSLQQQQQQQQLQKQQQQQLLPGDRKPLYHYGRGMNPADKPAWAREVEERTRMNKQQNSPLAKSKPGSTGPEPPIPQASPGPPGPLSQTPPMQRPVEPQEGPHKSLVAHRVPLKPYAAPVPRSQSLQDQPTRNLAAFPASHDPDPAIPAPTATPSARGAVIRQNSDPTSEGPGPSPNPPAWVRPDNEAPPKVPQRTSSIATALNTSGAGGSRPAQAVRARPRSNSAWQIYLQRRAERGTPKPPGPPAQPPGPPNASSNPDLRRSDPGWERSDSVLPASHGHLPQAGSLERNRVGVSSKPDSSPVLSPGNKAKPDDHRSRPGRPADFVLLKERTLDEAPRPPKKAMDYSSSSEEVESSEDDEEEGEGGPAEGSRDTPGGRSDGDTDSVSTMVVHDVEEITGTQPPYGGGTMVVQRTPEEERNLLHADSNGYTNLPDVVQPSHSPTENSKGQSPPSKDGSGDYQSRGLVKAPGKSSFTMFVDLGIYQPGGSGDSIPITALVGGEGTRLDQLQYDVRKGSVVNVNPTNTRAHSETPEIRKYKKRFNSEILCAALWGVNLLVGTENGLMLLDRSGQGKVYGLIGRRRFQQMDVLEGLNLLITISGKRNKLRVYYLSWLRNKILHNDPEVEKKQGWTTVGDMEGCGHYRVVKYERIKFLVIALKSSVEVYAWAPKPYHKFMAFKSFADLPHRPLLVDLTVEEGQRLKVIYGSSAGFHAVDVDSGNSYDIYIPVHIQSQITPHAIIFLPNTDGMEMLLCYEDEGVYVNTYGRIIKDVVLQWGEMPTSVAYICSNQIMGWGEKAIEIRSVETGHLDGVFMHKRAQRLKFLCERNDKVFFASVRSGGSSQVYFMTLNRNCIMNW
Sequence of Mitogen-activated protein kinase 14 (Q16539 whole entry): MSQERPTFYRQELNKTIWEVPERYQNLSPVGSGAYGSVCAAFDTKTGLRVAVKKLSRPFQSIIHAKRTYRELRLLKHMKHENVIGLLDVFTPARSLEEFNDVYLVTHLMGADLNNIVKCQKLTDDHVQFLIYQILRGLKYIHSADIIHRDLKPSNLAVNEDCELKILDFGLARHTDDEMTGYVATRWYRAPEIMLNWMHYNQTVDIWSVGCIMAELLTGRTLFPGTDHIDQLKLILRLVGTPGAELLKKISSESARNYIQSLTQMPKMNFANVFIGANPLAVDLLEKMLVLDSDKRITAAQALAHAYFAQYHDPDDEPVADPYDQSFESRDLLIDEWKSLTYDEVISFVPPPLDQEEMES
Sequence of Mitogen-activated protein kinase 9 (P45984 whole entry): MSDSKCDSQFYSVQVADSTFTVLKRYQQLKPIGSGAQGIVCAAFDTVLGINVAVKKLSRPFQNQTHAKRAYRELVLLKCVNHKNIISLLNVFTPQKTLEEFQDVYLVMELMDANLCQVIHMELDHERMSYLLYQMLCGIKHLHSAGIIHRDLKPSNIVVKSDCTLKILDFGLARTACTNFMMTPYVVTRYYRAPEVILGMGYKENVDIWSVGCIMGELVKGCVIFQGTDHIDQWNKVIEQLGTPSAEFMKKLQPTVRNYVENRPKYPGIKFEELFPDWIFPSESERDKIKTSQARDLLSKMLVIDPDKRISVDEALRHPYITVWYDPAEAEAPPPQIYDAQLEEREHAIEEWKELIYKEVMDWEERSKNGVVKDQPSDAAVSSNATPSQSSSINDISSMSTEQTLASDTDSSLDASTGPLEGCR
Sequence of Serine/threonine-protein kinase 3 (Q13188 whole entry): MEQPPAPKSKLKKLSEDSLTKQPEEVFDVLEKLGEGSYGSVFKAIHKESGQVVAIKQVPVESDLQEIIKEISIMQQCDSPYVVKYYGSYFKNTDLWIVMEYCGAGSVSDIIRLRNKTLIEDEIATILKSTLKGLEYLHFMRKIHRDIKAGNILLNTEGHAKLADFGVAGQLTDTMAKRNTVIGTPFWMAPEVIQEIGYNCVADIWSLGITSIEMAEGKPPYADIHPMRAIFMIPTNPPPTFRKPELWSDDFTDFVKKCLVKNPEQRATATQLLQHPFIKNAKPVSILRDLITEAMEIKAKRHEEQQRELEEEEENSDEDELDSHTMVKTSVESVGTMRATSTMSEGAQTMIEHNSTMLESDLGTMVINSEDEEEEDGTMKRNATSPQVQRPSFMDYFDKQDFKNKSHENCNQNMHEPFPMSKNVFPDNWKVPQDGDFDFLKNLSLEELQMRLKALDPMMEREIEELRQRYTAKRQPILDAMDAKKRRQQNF
Sequence of Insulin-like growth factor 1 receptor (P08069 31-736 limits assumed): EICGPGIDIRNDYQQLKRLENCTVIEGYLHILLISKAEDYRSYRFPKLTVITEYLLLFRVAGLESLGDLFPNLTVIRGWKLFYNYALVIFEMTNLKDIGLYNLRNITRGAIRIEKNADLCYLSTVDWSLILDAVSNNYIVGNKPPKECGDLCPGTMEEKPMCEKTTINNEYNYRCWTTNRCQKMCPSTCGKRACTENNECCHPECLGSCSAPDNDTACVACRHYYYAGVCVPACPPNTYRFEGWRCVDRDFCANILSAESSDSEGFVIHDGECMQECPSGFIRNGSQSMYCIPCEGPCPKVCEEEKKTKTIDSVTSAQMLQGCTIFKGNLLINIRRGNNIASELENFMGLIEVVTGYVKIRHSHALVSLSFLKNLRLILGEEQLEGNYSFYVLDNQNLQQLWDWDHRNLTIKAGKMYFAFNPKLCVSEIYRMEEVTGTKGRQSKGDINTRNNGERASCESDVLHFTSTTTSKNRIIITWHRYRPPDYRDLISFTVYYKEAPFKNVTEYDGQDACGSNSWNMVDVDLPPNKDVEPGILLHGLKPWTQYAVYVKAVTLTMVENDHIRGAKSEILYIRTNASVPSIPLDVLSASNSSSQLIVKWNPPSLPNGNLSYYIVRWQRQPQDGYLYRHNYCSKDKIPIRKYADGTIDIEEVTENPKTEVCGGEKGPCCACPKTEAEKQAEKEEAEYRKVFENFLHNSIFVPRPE
Sequence of Insulin-like growth factor 1 receptor (P08069 741-1367 limits assumed): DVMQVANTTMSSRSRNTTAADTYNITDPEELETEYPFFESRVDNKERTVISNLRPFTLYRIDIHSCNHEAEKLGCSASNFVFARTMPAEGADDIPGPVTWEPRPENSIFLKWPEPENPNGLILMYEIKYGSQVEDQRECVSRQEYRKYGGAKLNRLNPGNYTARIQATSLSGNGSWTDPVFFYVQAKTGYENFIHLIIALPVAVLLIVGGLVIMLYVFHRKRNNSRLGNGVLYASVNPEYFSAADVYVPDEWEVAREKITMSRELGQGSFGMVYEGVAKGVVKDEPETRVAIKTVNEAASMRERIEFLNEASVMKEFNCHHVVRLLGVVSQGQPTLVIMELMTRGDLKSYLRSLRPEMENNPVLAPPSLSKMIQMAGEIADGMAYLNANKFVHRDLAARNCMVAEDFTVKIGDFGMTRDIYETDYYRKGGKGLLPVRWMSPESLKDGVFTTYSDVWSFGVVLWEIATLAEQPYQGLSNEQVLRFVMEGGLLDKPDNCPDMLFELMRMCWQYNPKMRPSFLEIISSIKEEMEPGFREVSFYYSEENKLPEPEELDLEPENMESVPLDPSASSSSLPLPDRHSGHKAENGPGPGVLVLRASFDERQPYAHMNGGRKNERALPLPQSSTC
Sequence of Dual specificity protein phosphatase 3 (P51452 whole entry): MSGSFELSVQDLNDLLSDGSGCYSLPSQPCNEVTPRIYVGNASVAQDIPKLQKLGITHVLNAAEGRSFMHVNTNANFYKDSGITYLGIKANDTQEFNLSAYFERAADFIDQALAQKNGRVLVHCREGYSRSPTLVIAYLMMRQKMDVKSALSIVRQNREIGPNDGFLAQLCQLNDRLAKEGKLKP
Sequence of cAMP-dependent protein kinase catalytic subunit PRKX (P51817 whole entry): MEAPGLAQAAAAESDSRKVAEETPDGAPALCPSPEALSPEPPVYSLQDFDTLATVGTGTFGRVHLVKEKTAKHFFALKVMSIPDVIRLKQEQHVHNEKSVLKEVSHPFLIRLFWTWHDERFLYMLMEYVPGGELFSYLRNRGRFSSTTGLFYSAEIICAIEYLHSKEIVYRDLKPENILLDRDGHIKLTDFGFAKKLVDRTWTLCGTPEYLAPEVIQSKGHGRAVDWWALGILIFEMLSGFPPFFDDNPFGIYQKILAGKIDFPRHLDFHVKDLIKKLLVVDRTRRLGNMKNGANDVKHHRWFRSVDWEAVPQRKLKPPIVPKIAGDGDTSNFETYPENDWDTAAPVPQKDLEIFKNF

On to `CC(C)c1ccc(-c2nnn(CCC(=O)O)n2)cc1`, for which, in assay [1], the IC50 was 7270 nM (active). Also, the EC50 in [2] was < 160 nM (active).

`COc1cc2c(cc1Nc1nc(Nc3cccc(F)c3C(N)=O)c3cc[nH]c3n1)N(C(=O)CN(C)C)CC2`: the Ki in assay [3] is > 3160 nM (inactive); in assay [4], 2 nM (active); in assay [5], > 2510 nM (inactive); in assay [6], > 3980 nM (inactive); in assay [7] it was > 1260 nM (inactive); in assay [8], > 10000 nM (inactive). The Ki in assay [9] is 631 nM (active); in [10], 3980 nM (active); in assay [11], > 3160 nM (inactive).

As for `CCn1nc(/C=C/c2ccccc2)nc2c(=O)n(C)c(=O)nc1-2`, the 50% inhibitory concentration (IC50) in [12] is 2240 nM (active). Further, in assay [13], the EC50 was 36.8 nM (active). For the same compound, the AC50 in assay [14] is 87.9 nM (active); in assay [15], 12000 nM (active). Also, the cytotoxic concentration (CC50) in assay [16] was > 40000 nM (active).
